# Measured values published in patent publication US20080114007A1 (priority 2006, published 2008).
# Target: CSF-1R (Homo sapiens, UniProt P07333)
# Test: Peptide (non-phosphorylated) assay, fluorescence polarization competition immunoassay
# Type: biochemical
# Conditions: 0.7 nM CSF-1R, 308 μM SYEGNSYTFIDPTQ peptide, 1 mM ATP, 80 min; mean of at least three determinations; read-out: c-fms Peptide IC50
# How it was run: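 Read-out is fluorescence polarization: after EDTA quench, anti-phosphotyrosine antibody plus PTK green tracer compete with the phosphorylated peptide for 30 min. The CSF-1R reaction itself ran 80 min at room temperature after ATP addition. DMSO (4%) wells served as controls, positive controls pre-treated with EDTA.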
# CSF-1R, sequence (P07333 20-972): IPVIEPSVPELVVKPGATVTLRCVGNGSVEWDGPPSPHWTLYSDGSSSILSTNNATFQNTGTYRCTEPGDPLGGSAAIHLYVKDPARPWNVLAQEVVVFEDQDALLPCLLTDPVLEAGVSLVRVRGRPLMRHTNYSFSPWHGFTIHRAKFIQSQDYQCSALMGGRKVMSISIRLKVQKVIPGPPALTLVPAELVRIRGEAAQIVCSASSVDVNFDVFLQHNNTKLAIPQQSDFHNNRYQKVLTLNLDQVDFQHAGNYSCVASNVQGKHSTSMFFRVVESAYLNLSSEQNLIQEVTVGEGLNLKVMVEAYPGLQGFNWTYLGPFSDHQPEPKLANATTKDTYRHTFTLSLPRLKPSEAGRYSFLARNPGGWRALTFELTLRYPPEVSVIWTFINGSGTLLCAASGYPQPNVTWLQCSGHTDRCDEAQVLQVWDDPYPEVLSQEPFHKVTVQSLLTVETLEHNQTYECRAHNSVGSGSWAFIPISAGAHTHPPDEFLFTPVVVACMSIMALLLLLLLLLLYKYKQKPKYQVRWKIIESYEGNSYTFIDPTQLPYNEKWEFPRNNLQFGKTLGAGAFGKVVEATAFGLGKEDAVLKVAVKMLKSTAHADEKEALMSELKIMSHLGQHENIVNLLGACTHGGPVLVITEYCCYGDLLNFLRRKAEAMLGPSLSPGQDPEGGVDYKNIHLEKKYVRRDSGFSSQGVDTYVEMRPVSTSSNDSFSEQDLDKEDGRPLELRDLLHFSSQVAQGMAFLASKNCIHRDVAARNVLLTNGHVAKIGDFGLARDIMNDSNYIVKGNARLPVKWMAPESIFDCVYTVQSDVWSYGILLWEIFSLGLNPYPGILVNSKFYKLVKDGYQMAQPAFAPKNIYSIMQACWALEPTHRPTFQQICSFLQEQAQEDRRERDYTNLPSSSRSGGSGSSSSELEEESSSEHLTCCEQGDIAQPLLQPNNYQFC
row,SMILES,IC50
1,"CCc1ccc(-n2cc(C(=O)NOC)c(=O)c3cnc(Nc4ccc(CCN5CCN(C)C(=O)C5)cc4)nc32)cc1 [Cpd 221, 8-(4-ethyl-phenyl)-2-{4-[2-(4-methyl-3-oxo-piperazin-1-yl)-ethyl]-phenylamino}-5-oxo-5,8-dihydro-pyrido[2,3-d]pyrimidine-6-carboxylic acid methoxy-amide]",0.87 nM
2,"CN1CCC(c2ccc(Nc3ncc4c(=O)c(C(=O)O)cn(-c5ccc6c(c5)CCC6)c4n3)cc2)CC1 [Cpd 222, 8-indan-5-yl-2-[4-(1-methyl-piperidin-4-yl)-phenylamino]-5-oxo-5,8-dihydro-pyrido[2,3-d]pyrimidine-6-carboxylic acid]",29 nM
3,"CCc1ccc(-n2cc(C(=O)NOC)c(=O)c3cnc(Nc4ccc(CCN5CCNC(=O)C5)cc4)nc32)cc1 [Cpd 224, 8-(4-ethyl-phenyl)-5-oxo-2-{4-[2-(3-oxo-piperazin-1-yl)-ethyl]-phenylamino}-5,8-dihydro-pyrido[2,3-d]pyrimidine-6-carboxylic acid methoxy-amide]",0.58 nM
4,"CONC(=O)c1cn(-c2cnc3c(c2)CCC3)c2nc(Nc3ccc(C4CCN(C)CC4)cc3)ncc2c1=O [Cpd 225, 8-(6,7-dihydro-5H-[1]pyrindin-3-yl)-2-[4-(1-methyl-piperidin-4-yl)-phenylamino]-5-oxo-5,8-dihydro-pyrido[2,3-d]pyrimidine-6-carboxylic acid methoxy-amide]",7 nM
5,"CONC(=O)c1cn(-c2cnc3c(c2)CCC3)c2nc(Nc3ccc(CCS(C)(=O)=O)cc3)ncc2c1=O [Cpd 226, 8-(6,7-dihydro-5H-[1]pyrindin-3-yl)-2-[4-(2-methanesulfonyl-ethyl)-phenylamino]-5-oxo-5,8-dihydro-pyrido[2,3-d]pyrimidine-6-carboxylic acid methoxy-amide]",7.7 nM
6,"CONC(=O)c1cn(-c2cnc3c(c2)CCC3)c2nc(Nc3ccc(CCO)cc3)ncc2c1=O [Cpd 227, 8-(6,7-dihydro-5H-[1]pyrindin-3-yl)-2-[4-(2-hydroxy-ethyl)-phenylamino]-5-oxo-5,8-dihydro-pyrido[2,3-d]pyrimidine-6-carboxylic acid methoxy-amide]",10 nM
7,"CCc1ccc(-n2cc(C(=O)NOC)c(=O)c3cnc(Nc4cccc(NC(=O)CN(C)C)c4)nc32)cc1 [Cpd 228, 2-[3-(2-dimethylamino-acetylamino)-phenylamino]-8-(4-ethyl-phenyl)-5-oxo-5,8-dihydro-pyrido[2,3-d]pyrimidine-6-carboxylic acid methoxy-amide]",0.68 nM
8,"CONC(=O)c1cn(-c2ccc3c(c2)CCC3)c2nc(Nc3cccc(NC(=O)CN(C)C)c3)ncc2c1=O [Cpd 229, 2-[3-(2-dimethylamino-acetylamino)-phenylamino]-8-indan-5-yl-5-oxo-5,8-dihydro-pyrido[2,3-d]pyrimidine-6-carboxylic acid methoxy-amide]",0.42 nM
9,"CONC(=O)c1cn(-c2ccc3c(c2)CCC3)c2nc(Nc3cccc(S(=O)(=O)CCN(C)C)c3)ncc2c1=O [Cpd 230, 2-[3-(2-dimethylamino-ethanesulfonyl)-phenylamino]-8-indan-5-yl-5-oxo-5,8-dihydro-pyrido[2,3-d]pyrimidine-6-carboxylic acid methoxy-amide]",1.1 nM
10,"CNCCS(=O)(=O)c1cccc(Nc2ncc3c(=O)c(C(=O)NOC)cn(-c4ccc5c(c4)CCC5)c3n2)c1 [Cpd 231, 8-indan-5-yl-2-[3-(2-methylamino-ethanesulfonyl)-phenylamino]-5-oxo-5,8-dihydro-pyrido[2,3-d]pyrimidine-6-carboxylic acid methoxy-amide]",0.71 nM
11,"CCc1ccc(-n2cc(C(=O)NOC)c(=O)c3cnc(Nc4ccc(CCN5CCCC(F)(F)C5)cc4)nc32)cc1 [Cpd 232, 2-{4-[2-(3,3-difluoro-piperidin-1-yl)-ethyl]-phenylamino}-8-(4-ethyl-phenyl)-5-oxo-5,8-dihydro-pyrido[2,3-d]pyrimidine-6-carboxylic acid methoxy-amide]",0.72 nM
12,"CONC(=O)c1cn(-c2ccc3c(c2)CCC3)c2nc(Nc3ccc(C4=CCN(C)CC4)cc3)ncc2c1=O [Cpd 235, 8-indan-5-yl-2-[4-(1-methyl-1,2,3,6-tetrahydro-pyridin-4-yl)-phenylamino]-5-oxo-5,8-dihydro-pyrido[2,3-d]pyrimidine-6-carboxylic acid methoxy-amide]",0.54 nM
13,"CONC(=O)c1cn(-c2ccc3c(c2)CCC3)c2nc(Nc3ccc([C@@]4(O)CCN(C)C[C@@H]4O)cc3)ncc2c1=O [Cpd 236, 2-{4-[(3S,4S)-(3,4-dihydroxy-1-methyl-piperidin-4-yl)]-phenylamino}-8-indan-5-yl-5-oxo-5,8-dihydro-pyrido[2,3-d]pyrimidine-6-carboxylic acid methoxy-amide]",0.47 nM
14,"CONC(=O)c1cn(-c2ccc3c(c2)CCC3)c2nc(Nc3ccc(C4CCN(C)CC4(F)F)cc3)ncc2c1=O (stereo not drawn) [Cpd 237, 2-[4-(3,3-difluoro-1-methyl-piperidin-4-yl)-phenylamino]-8-indan-5-yl-5-oxo-5,8-dihydro-pyrido[2,3-d]pyrimidine-6-carboxylic acid methoxy-amide]",0.71 nM
15,"CONC(=O)c1cn(-c2ccc3c(c2)CCC3)c2nc(Nc3ccc(CCN4CCC(O)CC4)cc3)ncc2c1=O [Cpd 238, 2-{4-[2-(4-hydroxy-piperidin-1-yl)-ethyl]-phenylamino}-8-indan-5-yl-5-oxo-5,8-dihydro-pyrido[2,3-d]pyrimidine-6-carboxylic acid methoxy-amide]",0.64 nM
16,"CONC(=O)c1cn(-c2ccc3c(c2)CCC3)c2nc(Nc3ccc(CCN4CCC[C@@H](O)C4)cc3)ncc2c1=O [Cpd 239, 2-{4-{2-[(3R)-(3-hydroxy-piperidin-1-yl)]-ethyl}-phenylamino}-8-indan-5-yl-5-oxo-5,8-dihydro-pyrido[2,3-d]pyrimidine-6-carboxylic acid methoxy-amide]",0.32 nM
17,"CCc1ccc(-n2cc(C(=O)NOC)c(=O)c3cnc(Nc4ccc(CCN5CCC[C@@H](O)C5)cc4)nc32)cc1 [Cpd 240, 8-(4-ethyl-phenyl)-2-(4-{2-[(3R)-(3-hydroxy-piperidin-1-yl)]-ethyl}-phenylamino)-5-oxo-5,8-dihydro-pyrido[2,3-d]pyrimidine-6-carboxylic acid methoxy-amide]",0.28 nM
18,"CONC(=O)c1cn(-c2ccc3c(c2)CCC3)c2nc(Nc3ccc(CCN4CCC(F)(F)C4)cc3)ncc2c1=O [Cpd 241, 2-{4-[2-(3,3-difluoro-pyrrolidin-1-yl)-ethyl]-phenylamino}-8-indan-5-yl-5-oxo-5,8-dihydro-pyrido[2,3-d]pyrimidine-6-carboxylic acid methoxy-amide]",1.7 nM
19,"CCc1ccc(-n2cc(C(=O)NOC)c(=O)c3cnc(Nc4ccc(C5CCCCN5)cc4)nc32)cc1 (stereo not drawn) [Cpd 242, 8-(4-ethyl-phenyl)-5-oxo-2-(4-piperidin-2-yl-phenylamino)-5,8-dihydro-pyrido[2,3-d]pyrimidine-6-carboxylic acid methoxy-amide]",0.59 nM
20,"CONC(=O)c1cn(-c2ccc3c(c2)CCC3)c2nc(Nc3ccc(C4CCCCN4C)cc3)ncc2c1=O (stereo not drawn) [Cpd 243, 8-indan-5-yl-2-[4-(1-methyl-piperidin-2-yl)-phenylamino]-5-oxo-5,8-dihydro-pyrido[2,3-d]pyrimidine-6-carboxylic acid methoxy-amide]",0.52 nM
21,"CCN1CCCCC1c1ccc(Nc2ncc3c(=O)c(C(=O)NOC)cn(-c4ccc5c(c4)CCC5)c3n2)cc1 (stereo not drawn) [Cpd 244, 2-[4-(1-ethyl-piperidin-2-yl)-phenylamino]-8-indan-5-yl-5-oxo-5,8-dihydro-pyrido[2,3-d]pyrimidine-6-carboxylic acid methoxy-amide]",0.64 nM
22,"CCc1ccc(-n2cc(C(=O)NOC)c(=O)c3cnc(Nc4ccc(C5CCCCN5CC)cc4)nc32)cc1 (stereo not drawn) [Cpd 245, 8-(4-ethyl-phenyl)-2-[4-(1-ethyl-piperidin-2-yl)-phenylamino]-5-oxo-5,8-dihydro-pyrido[2,3-d]pyrimidine-6-carboxylic acid methoxy-amide]",0.29 nM
23,"CONC(=O)c1cn(-c2ccc3c(c2)CCC3)c2nc(Nc3ccc(C4CCCCN4)cc3)ncc2c1=O (stereo not drawn) [Cpd 246, 8-indan-5-yl-5-oxo-2-(4-piperidin-2-yl-phenylamino)-5,8-dihydro-pyrido[2,3-d]pyrimidine-6-carboxylic acid methoxy-amide]",0.38 nM
24,"CCc1ccc(-n2cc(C(=O)NOC)c(=O)c3cnc(Nc4cccc(OC5CN6CCC5CC6)c4)nc32)cc1 (stereo not drawn) [Cpd 247, 2-[3-(1-aza-bicyclo[2.2.2]oct-3-yloxy)-phenylamino]-8-(4-ethyl-phenyl)-5-oxo-5,8-dihydro-pyrido[2,3-d]pyrimidine-6-carboxylic acid methoxy-amide]",0.59 nM
25,"CCc1ccc(-n2cc(C(=O)NOC)c(=O)c3cnc(Nc4cccc(OC5CCCNC5)c4)nc32)cc1 (stereo not drawn) [Cpd 248, 8-(4-ethyl-phenyl)-5-oxo-2-[3-(piperidin-3-yloxy)-phenylamino]-5,8-dihydro-pyrido[2,3-d]pyrimidine-6-carboxylic acid methoxy-amide]",0.43 nM
26,"CCc1ccc(-n2cc(C(=O)NOC)c(=O)c3cnc(Nc4ccc([C@]5(O)CCN(C)C[C@H]5O)cc4)nc32)cc1 [Cpd 249, 2-{4-[(3R,4R)-(3,4-dihydroxy-1-methyl-piperidin-4-yl)]-phenylamino}-8-(4-ethyl-phenyl)-5-oxo-5,8-dihydro-pyrido[2,3-d]pyrimidine-6-carboxylic acid methoxy-amide]",0.55 nM

# Same assay, conditions: c-fms Peptide IC50, 0.7 nM CSF-1R, 308 μM SYEGNSYTFIDPTQ peptide, 1 mM ATP, 80 min; mean of at least three determinations
row,SMILES,IC50
1,"CONC(=O)c1cn(-c2ccc3c(c2)CCC3)c2nc(Nc3ccc(CCN4CCC(F)(F)CC4)cc3)ncc2c1=O [Cpd 234, 2-{4-[2-(4,4-difluoro-piperidin-1-yl)-ethyl]-phenylamino}-8-indan-5-yl-5-oxo-5,8-dihydro-pyrido[2,3-d]pyrimidine-6-carboxylic acid methoxy-amide]",1.7 nM
